According to publication PMC3076140 (Journal of medicinal chemistry, 2011):

Key:
[1] = system: mouse MC1 and MC3-5 receptors
[2] = system: melanocortin receptors; conditions: lactam bridge template; cited from earlier work

Substance | MC4R versus MC3R selectivity ([1]; from EC50 values of Table 2) | agonist efficacy at all the melanocortin receptor isoforms examined ([1]; mMC1R, mMC3R, mMC4R, mMC5R, maximal efficacy compared to NDP-MSH control) | agonist activity at the melanocortin receptors [2]
Tyr-c[Cys-His-D-Phe-(R)-MIM(Arg)-Trp-Asn-Ala-Phe-Cys]-Tyr-NH2 [compound 7] | 5 fold | full agonists | 
Tyr-c[β-Asp-His-DPhe-Arg-Trp-Asn-Ala-Phe-Dpr]-Tyr-NH2 (sidechain bridge or staple) |  |  | full agonist at the melanocortin receptors that is as potent as the endogenous α-MSH agonist
